These results are taken from patent US12448632B2, “Guanidine degradation enzyme and methods of use” (Alliance for Sustainable Energy, LLC, priority 2020, dated 2025).

For data set [1], the system named is Synechococcus 7942. The class given is cell-based, Synechococcus elongatus PCC 7942. On the procedure: (§1) Guanidine tolerance and degradation test. For guanidine tolerance test, cyanobacterial strains were grown in 20 mL mBG11 medium supplemented with 0-1 mM guanidine and 50 mM NaHCO3. For guanidine degradation test, cyanobacterial strains were grown in 10 mL mBG11 free of nitrate while supplemented with 50 mM NaHCO3 and 5 mM or 1 mM guanidine chloride, under constant light of 50 μE m^−2 s^−1 on a rotary shaker at 150 rpm and 30° C. Every day, 1 mL of culture was sampled for reading OD730 and then transferred into an Eppendorf tube and centrifuged at 17000×g at room temperature for 2 min. The supernatants were stored at −20° C. for later analysis of guanidine.

Data set [2] relates to Δsll1077 strain (PB805W). Put plainly: Growth in nitrate-deprived medium with guanidine. Format: cell-based, Synechocystis sp. PCC 6803. Particulars: guanidine-supplemented (5 mM) versus nitrogen-deprived conditions. How it is done: as §1
Data set [3] relates to GD7942 (+sll1077). Put plainly: Guanidine tolerance test, cell growth. Format: cell-based, Synechococcus elongatus PCC 7942. How it is done: Guanidine tolerance and degradation test. […] For guanidine degradation test, cyanobacterial strains were grown in 10 mL mBG11 free of nitrate while supplemented with 50 mM NaHCO3 and 5 mM or 1 mM guanidine chloride, under constant light of 50 μE m^−2 s^−1 on a rotary shaker at 150 rpm and 30° C. Every day, 1 mL of culture was sampled for reading OD730 and then transferred into an Eppendorf tube and centrifuged at 17000×g at room temperature for 2 min. The supernatants were stored at −20° C. for later analysis of guanidine.

The test system of data set [4] is Synechococcus 7942. The data set is described as follows: Cell growth with urea in culture medium. The class given is cell-based, Synechococcus elongatus PCC 7942. Particulars: 5 mM urea; nitrate-deprived or nitrate-replete conditions.

Regarding `N=C(N)N` [guanidine], the “guanidine concentration at which cell growth was already inhibited” value in data set [1] turned out to be 0.3 mM. The figures for the cell growth result in data set [2], in data set [3] (1 mM guanidine in culture medium) and in data set [3] (2 mM guanidine in culture medium) were “severely inhibited”, “not apparently repressed” and “only slightly inhibited”, respectively.

Take `NC(N)=O` [urea]: the “impact on cell growth” value in data set [4] was “did not show any apparent impact on the cell growth”.
